# According to patent publication US10882854B2, “Heterocyclic compounds and use thereof” (National Health Research Institutes, priority 2017, dated 2021):
# pEC50, pIC50: −log10 of the molar value. Entries after “also recorded” stand apart in the source; their conditions may differ.
# Key:
# human CXCR4 = molecular target: T1, human CXCR4 (Homo sapiens, UniProt P61073); assay: Inhibition of 125I-CXCL12 radioligand binding, membranes of human CXCR4-transfected HEK293 cells; settings: 0.16 nM 125I-CXCL12, 60 min at 30 °C, read-out: concentration required to inhibit binding of 125I-CXCL12 to CXCR4 by 50% (IC50)
# T1 construct: expressed in transfected cells; host or cells: HEK293 cells (membranes)
# T1 sequence (P61073 whole entry): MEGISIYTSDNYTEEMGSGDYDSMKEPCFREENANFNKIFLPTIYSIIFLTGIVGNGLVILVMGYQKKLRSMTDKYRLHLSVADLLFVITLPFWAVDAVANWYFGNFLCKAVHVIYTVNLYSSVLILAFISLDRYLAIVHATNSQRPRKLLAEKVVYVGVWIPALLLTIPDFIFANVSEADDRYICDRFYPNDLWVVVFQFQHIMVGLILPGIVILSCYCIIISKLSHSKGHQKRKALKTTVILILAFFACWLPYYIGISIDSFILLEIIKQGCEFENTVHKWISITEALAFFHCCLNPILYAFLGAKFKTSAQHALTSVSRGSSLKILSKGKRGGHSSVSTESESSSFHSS
# Procedure: Binding competition between the compounds of Formula (I) and human CXCL12 was assessed using a radioligand binding assay as described below.
# Membranes (2-4 μg) prepared from human CXCR4-transfected HEK293 cells in 40 μL of assay buffer (50 mM HEPES-NaOH, pH 7.4, 100 mM NaCl, 5 mM MgCl2, 1 mM CaCl2, 0.5% bovine serum albumin) were incubated with 20 μL of radio-labeled ^125I-CXCL12 (0.16 nM) and 20 μL of a test compound in an assay plate (Costar Corning, Cambridge, Mass.). After 60 minutes at 30° C., the incubation was terminated by transferring the resulting reaction mixture to a 96-well GF/B filter plate (Millipore Corp., Billerica, Mass.) and filtered via a manifold. The plate was washed with 100 μL of ice-cold wash buffer (50 mM HEPES-NaOH, pH 7.4, 100 mM NaCl) four times. The radioactivity bound to the filter was measured by Topcount (PerkinElmer Inc., Waltham, Mass.).
# [1] = test system: T-cell acute lymphoblastic leukemia (CCRF-CEM) cells; assay: Inhibition of CXCL12-induced chemotaxis in lymphoblastic leukemia cells; format: cell-based; settings: Homo sapiens, CXCL12 10 nM, 2.5 h at 37 °C, read-out: concentration required to inhibit chemotaxis by 50% (EC50)
# Procedure: The response of cancer cells to compounds of Formula (I) was evaluated using the chemotaxis assay as set forth below.
# T-cell acute lymphoblastic leukemia (CCRF-CEM) cells in Roswell Park Memorial Institute medium (RPMI) 1640 supplemented with 10% […] were incubated with 250 μL of a test compound. The assay was performed using Millicell Hanging Cell Culture Inserts (pore size 5 μm; 24-well plate; Millipore, Bedford, Mass., USA). After 10 minutes at 37° C., 250 μL of cells pre-incubated with a test compound were plated per well in the upper chambers of the inserts at a density of 2.5×10^5 cells/well. 300 μL/well medium containing CXCL12 (10 nM) and a test compound were plated in the lower chamber of the insert. After 2.5 h at 37° C., cells in both chambers of inserts were measured by flow cytometry (Guava Technologies, Hayward, Calif., USA).
# [2] = test system: Hematopoietic stem cells (CD34+) and endothelial progenitor cells (CD133+); assay: Mobilization of stem/progenitor cells into peripheral blood in mice; format: in vivo, C57BL/6 male mice
# HCC cell line HCA-1 = assay: Syngeneic orthotopic hepatocellular carcinoma (HCC) mouse model; format: in vivo, C3H mice; settings: for tumor size: C3H mice with orthotopic HCA-1, 10 mg/kg/day by osmotic pump for two weeks, combined with sorafenib 40 mg/kg daily, control about 400 mm^3
# Procedure: The efficacy of a compound of Formula (I), i.e., Compounds 42, in treating HCC was assessed using a syngeneic mouse model as follows.
# C3H mouse-derived HCC cell line HCA-1 was used. HCA-1 cells were orthotopically implanted in C3H mice for 10 days. The mice were subsequently treated with sorafenib (a small molecule drug for treating hepatocellular carcinoma; 40 mg/kg) daily for two weeks or treated with vehicle (PBS) alone as a control. Tested compounds, e.g., AMD3100 (10 mg/kg/day) and Compound 42 (10 mg/kg/day), were each administered continuously to those mice treated with sorafenib using an Alzet osmotic pump (DURECT Corporation, Cupertino, Calif.) for two weeks.
# [3] = test system: mild traumatic brain injury (mTBI) model; assay: Mild traumatic brain injury (mTBI) model in mice; format: in vivo, Adult CD1 mice; settings: CD1 mice, versus vehicle
# [4] = test system: rat ischemic myocardial infarction model; assay: Rat ischemic myocardial infarction model; format: in vivo, Male SD rats; settings: SD rats; 5 mg/kg single subcutaneous injection 30 minutes before LAD ligation; 24 hours; versus saline
# Procedure: The efficacy of a compound of Formula (I), i.e., Compound 42, in protecting against myocardial infarction was assessed in a rat ischemic myocardial infarction model as follows.
# Male SD rats (400-500 gram each) received a single subcutaneous injection of Compound 42 at a dosage of 5 mg/kg or an equal volume of saline (n=18-20 per group) 30 minutes before surgery was conducted. Left anterior descending artery (LAD) was transiently ligated using a 6-0 nylon suture for a 30-minute ischemic period in this surgery. After 24 hours, each rat was anesthetized and the LAD was ligated again. 2 mL of 5% Evan's Blue was then injected into the tail vein and allowed to perfuse for 2 minutes. The heart was immediately excised, washed with saline, froze at −80° C., and cut in semi-frozen state into 2-mm thick sections. Slices were then incubated in 1% tri-phenyltetrazolium chloride solution for 10 minutes at 37° C. and fixed in 10% formalin. Infarct size was recorded after staining.
# [5] = test system: acute Kidney Injury (AKI) model; assay: Ischemia-reperfusion acute kidney injury (AKI) model in rats; format: in vivo, male Sprague-Dawley rats; settings: 6 mg/Kg subcutaneous 40 min before AKI, blood 24 h after induction of AKI
# Procedure: The efficacy of five compounds of Formula (I) in treating Ischemia-Reperfusion injury was assessed using both an acute kidney injury model, an ischemic stroke model, and a limb ischemia model. These five compounds are Compounds 13, 35, 40, 45, and 46. In an acute Kidney Injury (AKI) model, each of the five compounds was dissolved in saline to form a solution. The solution was administered to male Sprague-Dawley rats (National Laboratory Animal Center, Taipei, Taiwan) subcutaneously at a dosage of 6 mg/Kg. 40 minutes after the subcutaneous injection, AKI was induced in the rats by clamping their bilateral renal vein and artery for one hour followed by releasing the vessel clips to allow 24-h reperfusion. Whole blood was collected at 24-h after induction of AKI. Blood urea nitrogen (BUN) and serum creatinine (Scr), two markers that increase upon kidney injury, were measured using a FUJI DRI-CHEM 3500s analyzer (Fujifilm, Tokyo, Japan). Non-AKI rats and AKI rats treated with saline were used as controls.
Structure (SMILES),pIC50 (human CXCR4),pEC50 [1],hematopoietic stem cell mobilization combined with G-CSF (CFU-GM numbers) [2],"body weight loss (HCC cell line HCA-1; C3H mice with HCA-1 tumors, 10 mg/kg/day for two weeks)",tumor size (HCC cell line HCA-1),"vertical activity and vertical movement time in mTBI mice ([3]; 3 mg/kg, 24 hours starting 15-minute after injury)","expression of inflammatory marker IBA1 in the lesioned cortex (qRTPCR) ([3]; 3 mg/kg, cortex collected day 5 after mTBI, 3 mg/kg)",locomotor activity after mTBI ([3]; early post-treatment given systemically after mTBI),protection of heart against ischemic damage (infarct size) [4],BUN level relative to that induced in saline-treated AKI rats [5],Scr (serum creatinine) level relative to that induced in saline-treated AKI rats [5]
N[C@@H](CCC(=O)NCCN1CCC(Nc2nc(NCc3nc(CCCNCCCNC4CCCCC4)cs3)nc3ccccc23)CC1)C(=O)NCCP(=O)(O)O [Compound 49],7.00 to 7.30,> 7.30,mobilize hematopoietic stem cells synergistically,–,–,–,–,–,–,–,–
N[C@@H](CCC(=O)NCCN1CCC(Nc2nc(NCc3nc(CCCNCCCNC4CCCCC4)co3)nc3ccccc23)CC1)C(=O)NCCP(=O)(O)O [Compound 50],7.00 to 7.30,6.82 to 7.30,mobilize hematopoietic stem cells synergistically,–,–,–,–,–,–,–,–
Cc1cc(NC2CCN(C(=O)CCNCC(=O)O)CC2)nc(NCc2nc(CCCNCCCNC3CCCCC3)co2)n1 [Compound 42],> 7.30,> 7.30,–,no significant body weight loss,about 50 mm^3,significantly improved vertical activity,significantly reduced IBA1 expression; also recorded: significantly suppressed,significantly improved locomotor activity,protected heart against ischemic damage to a large degree,–,–
Cc1cc(NC2CCN(C(=O)CCNCC(=O)O)CC2)nc(NCc2coc(CCCNCCCNC3CCCCC3)n2)n1 [Compound 40],> 7.30,> 7.30,mobilize hematopoietic stem cells synergistically,–,–,–,–,–,–,20%,36%
Cc1cc(NC2CCN(C(=O)CCNCC(=O)O)CC2)nc(NCc2nnc(CCCNCCCNC3CCCCC3)s2)n1 [Compound 45],7.00 to 7.30,> 7.30,mobilize hematopoietic stem cells synergistically,–,–,–,–,–,–,11%,10%
"c1cc(CN2CCCNCCNCCCNCC2)ccc1CN1CCCNCCNCCCNCC1 [AMD3100, reference compound]",–,–,–,–,about 250 mm^3,–,–,–,–,–,–
N[C@@H](CCC(=O)N1CCC(Nc2nc(NCc3nnc(CCCNCCCNC4CCCCC4)s3)nc3ccccc23)CC1)C(=O)O [Compound 35],7.00 to 7.30,> 7.30,–,–,–,–,–,–,–,15%,22%
